20 compounds from US20240150340A1, “CDK Inhibitors And Their Use As Pharmaceuticals” (Prelude Therapeutics Incorporated, priority 2022, published 2024) can be followed below.

The target in one assay is T1, CDK4/Cyclin D1 (Homo sapiens, UniProt P11802).
T1 construct: purchased ProQinase; host or cells: insect cell
Put plainly: CDK4/CyclinD1 Enzymatic Activity Assay (TR-FRET). Format: biochemical. The settings on record: ATP 2 mM final, read-out: CDK4_D1 IC50. An outline of the steps: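 Insect-cell-expressed CDK4/Cyclin D1 (1 nM) with ULight-4E-BP1 (100 nM) and 2 mM ATP in HEPES pH 7.4; 9-dose 3-fold compound series preincubated 20 min, reaction started with 10 mM MgCl2, 45 min at 37° C. Europium anti-P-4E-BP1 TR-FRET read; IC50 from 4-parameter Hill fit.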
For orientation: TR-FRET usually uses a lanthanide donor and a delayed reading to cut background.

Another assay concerns the target T2, CDK2/Cyclin E2 (Homo sapiens, UniProt P24941).
T2 construct: Recombinant protein complex CDK2/Cyclin E2, expressed from insect cell, was purchased from ProQinase
In words: CDK2/CyclinE2 Enzymatic Activity Assay (TR-FRET). The settings on record: ATP 1 mM final, read-out: CDK2_E1 IC50. It is filed as biochemical. The essentials:
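Recombinant insect-cell CDK2/Cyclin E2 (1 nM) phosphorylated ULight-4E-BP1 (50 nM) with 1 mM ATP in HEPES pH 7.4 buffer, after 20 min compound preincubation; MgCl2 (10 mM) started the 45 min reaction at 37° C. Europium anti-phospho-4E-BP1 TR-FRET read; 9-dose IC50 by 4-parameter fit.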

A further assay deals with OVCAR3 p-RB. Put plainly: pRB ICW Assay in OVCAR3 Cells. Format: cell-based. The settings on record: Homo sapiens, OVCAR-3, incubated with compound for 2 hours. The essentials:
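In-Cell Western on OVCAR3: phospho-RB antibody signal with DRAQ5 counterstain read at 700 and 800 nm after fixation. Compounds were applied for 2 h at 37° C. as 9-point ½-log dilutions in duplicate; 10 μM reference compound defined full inhibition.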

T1 sequence (P11802 whole entry): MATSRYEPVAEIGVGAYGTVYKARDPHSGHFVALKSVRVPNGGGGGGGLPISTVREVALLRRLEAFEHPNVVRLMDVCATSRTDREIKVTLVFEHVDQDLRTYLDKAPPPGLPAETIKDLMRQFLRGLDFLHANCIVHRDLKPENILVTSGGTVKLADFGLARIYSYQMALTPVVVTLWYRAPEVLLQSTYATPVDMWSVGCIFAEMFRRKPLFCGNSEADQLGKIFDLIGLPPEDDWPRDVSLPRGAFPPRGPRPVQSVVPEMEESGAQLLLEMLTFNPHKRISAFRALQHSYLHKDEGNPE
T1 sequence (P24385 whole entry partner): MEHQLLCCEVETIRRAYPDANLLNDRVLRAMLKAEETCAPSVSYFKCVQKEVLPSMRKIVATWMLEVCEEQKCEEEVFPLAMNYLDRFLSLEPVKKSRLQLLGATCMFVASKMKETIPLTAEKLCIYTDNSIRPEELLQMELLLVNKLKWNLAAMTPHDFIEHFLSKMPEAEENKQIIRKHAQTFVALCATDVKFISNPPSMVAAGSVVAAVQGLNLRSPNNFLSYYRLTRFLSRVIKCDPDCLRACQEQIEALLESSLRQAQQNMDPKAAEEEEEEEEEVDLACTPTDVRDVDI

One may read the IC50 as the concentration that gives 50% inhibition. As for `Cc1sc(-c2nc(N[C@H]3CCN(S(=O)(=O)c4cn(C)cn4)C[C@H]3F)ncc2C(F)(F)F)cc1C#N` [Example 31, 5-(2-(((3R,4S)-3-fluoro-1-((1-methyl-1H-imidazol-4-yl)sulfonyl)piperidin-4-yl)amino)-5-(trifluoromethyl)pyrimidin-4-yl)-2-methylthiophene-3-carbonitrile], the IC50 at CDK4/Cyclin D1, at CDK2/Cyclin E2 and in the assay on OVCAR3 p-RB was no more than 100 nM in each case.
For the compound `Cn1cnc(S(=O)(=O)N2CC[C@H](Nc3ncc(C(F)(F)F)c(-c4cc(C#N)c(CC(C)(C)O)s4)n3)[C@H](F)C2)c1` [Example 42, 5-(2-(((3R,4S)-3-fluoro-1-((1-methyl-1H-imidazol-4-yl)sulfonyl)piperidin-4-yl)amino)-5-(trifluoromethyl)pyrimidin-4-yl)-2-(2-hydroxy-2-methylpropyl)thiophene-3-carbonitrile], the IC50 at CDK4/Cyclin D1, on CDK2/Cyclin E2 and in the assay with OVCAR3 p-RB was no more than 100 nM in each case.
Regarding `COCc1cc(-c2nc(NC3CCN(S(=O)(=O)c4cnn(C)c4)CC3)ncc2C(F)(F)F)sc1C` [Example 82, 4-(4-(methoxymethyl)-5-methylthiophen-2-yl)-N-(1-((1-methyl-1H-pyrazol-4-yl)sulfonyl)piperidin-4-yl)-5-(trifluoromethyl)pyrimidin-2-amine], the IC50 was 100 to 500 nM at CDK4/Cyclin D1, no more than 100 nM at CDK2/Cyclin E2 and greater than 500 nM in the assay on OVCAR3 p-RB.
On the same counts, the results for `C[C@@H]1CN(S(=O)(=O)c2cnc3cccnn23)CC[C@@H]1Nc1ncc(C(F)(F)F)c(-c2cc(C(N)=O)cs2)n1` [Example 22, 5-(2-(((3R,4S)-1-(imidazo[1,2-b]pyridazin-3-ylsulfonyl)-3-methylpiperidin-4-yl)amino)-5-(trifluoromethyl)pyrimidin-4-yl)thiophene-3-carboxamide] are 100 to 500 nM, no more than 100 nM and no more than 100 nM.
`Cn1cc(S(=O)(=O)N2CCC(Nc3ncc(C(F)(F)F)c(-c4nccs4)n3)CC2)cn1` [Example 58, N-(1-((1-methyl-1H-pyrazol-4-yl)sulfonyl)piperidin-4-yl)-4-(thiazol-2-yl)-5-(trifluoromethyl)pyrimidin-2-amine]: the figures for the IC50 on CDK4/Cyclin D1, on CDK2/Cyclin E2 and with OVCAR3 p-RB were no more than 100 nM, no more than 100 nM and 100 to 500 nM, respectively.
Regarding `CC(C)(O)Cc1cnc(-c2nc(N[C@H]3CCN(S(C)(=O)=O)C[C@H]3F)ncc2C(F)(F)F)s1` [Example 108, 1-(2-(2-(((3R,4S)-3-fluoro-1-(methylsulfonyl)piperidin-4-yl)amino)-5-(trifluoromethyl)pyrimidin-4-yl)thiazol-5-yl)-2-methylpropan-2-ol], the IC50 at CDK4/Cyclin D1 is no more than 100 nM; at CDK2/Cyclin E2, no more than 100 nM; with OVCAR3 p-RB, 100 to 500 nM.
Regarding `Cc1sc(-c2nc(N[C@H]3CCN(S(=O)(=O)c4c[nH]cn4)C[C@H]3C)ncc2C(F)(F)F)cc1C(N)=O` [Example 25, 5-(2-(((3R,4S)-1-((1H-imidazol-4-yl)sulfonyl)-3-methylpiperidin-4-yl)amino)-5-(trifluoromethyl)pyrimidin-4-yl)-2-methylthiophene-3-carboxamide], the values for the IC50 on CDK4/Cyclin D1, on CDK2/Cyclin E2 and in the assay with OVCAR3 p-RB were no more than 100 nM, no more than 100 nM and 100 to 500 nM, respectively.
Consider `C[C@@H]1CN(S(=O)(=O)c2cnn(C)c2)CC[C@@H]1Nc1ncc(C(F)(F)F)c(-c2cc(C(N)=O)cs2)n1` [Example 19, 5-(2-(((3R,4S)-3-methyl-1-((1-methyl-1H-pyrazol-4-yl)sulfonyl)piperidin-4-yl)amino)-5-(trifluoromethyl)pyrimidin-4-yl)thiophene-3-carboxamide], for which the IC50 at CDK4/Cyclin D1, on CDK2/Cyclin E2 and with OVCAR3 p-RB was no more than 100 nM throughout.
On to `Cn1cnc(S(=O)(=O)N2CCC(Nc3ncc(C(F)(F)F)c(-c4ncc(CC(C)(C)O)s4)n3)CC2)c1` [Example 3, 2-Methyl-1-(2-(2-((1-((1-methyl-1H-imidazol-4-yl)sulfonyl)piperidin-4-yl)amino)-5-(trifluoromethyl)pyrimidin-4-yl)thiazol-5-yl)propan-2-ol], for which the IC50 on CDK4/Cyclin D1, on CDK2/Cyclin E2 and in the assay on OVCAR3 p-RB was no more than 100 nM in each case.
`Cn1cc(S(=O)(=O)N2CC[C@@H](Nc3ncc(C(F)(F)F)c(-c4cc(C(N)=O)cs4)n3)[C@H](F)C2)cn1` [Example 13, 5-(2-(((3R,4R)-3-fluoro-1-((1-methyl-1H-pyrazol-4-yl)sulfonyl)piperidin-4-yl)amino)-5-(trifluoromethyl)pyrimidin-4-yl)thiophene-3-carboxamide]: the half-maximal inhibitory concentration (IC50) on CDK4/Cyclin D1, on CDK2/Cyclin E2 and in the assay on OVCAR3 p-RB was no more than 100 nM each time.
As for `Cn1cc(S(=O)(=O)N2CCC(Nc3ncc(C(F)(F)F)c(-c4cc(C(N)=O)c(CC(C)(C)O)s4)n3)CC2)cn1` [Example 51, 2-(2-hydroxy-2-methylpropyl)-5-(2-((1-((1-methyl-1H-pyrazol-4-yl)sulfonyl)piperidin-4-yl)amino)-5-(trifluoromethyl)pyrimidin-4-yl)thiophene-3-carboxamide], the IC50 at CDK4/Cyclin D1, at CDK2/Cyclin E2 and with OVCAR3 p-RB was no more than 100 nM each time.
As to `Cn1cnc(S(=O)(=O)N2CC[C@H](Nc3ncc(C(F)(F)F)c(-c4cc(C(N)=O)cs4)n3)[C@H](F)C2)c1` [Example 12, 5-(2-(((3R,4S)-3-fluoro-1-((1-methyl-1H-imidazol-4-yl)sulfonyl)piperidin-4-yl)amino)-5-(trifluoromethyl)pyrimidin-4-yl)thiophene-3-carboxamide], the IC50 on CDK4/Cyclin D1, on CDK2/Cyclin E2 and in the assay on OVCAR3 p-RB was no more than 100 nM in each case.
As to `Cc1cnc(-c2nc(N[C@@H]3CCN(S(=O)(=O)c4cnn(C)c4)C[C@H]3F)ncc2C(F)(F)F)s1` [Example 27, N-((3R,4R)-3-fluoro-1-((1-methyl-1H-pyrazol-4-yl)sulfonyl)piperidin-4-yl)-4-(5-methylthiazol-2-yl)-5-(trifluoromethyl)pyrimidin-2-amine], the IC50 at CDK4/Cyclin D1 is no more than 100 nM; at CDK2/Cyclin E2, no more than 100 nM; in the assay on OVCAR3 p-RB, 100 to 500 nM.
Consider `Cn1cc(S(=O)(=O)N2CC[C@H](Nc3ncc(C(F)(F)F)c(-c4cc(C(N)=O)c(CC(C)(C)O)s4)n3)[C@H](F)C2)cn1` [Example 46, 5-(2-(((3R,4S)-3-fluoro-1-((1-methyl-1H-pyrazol-4-yl)sulfonyl)piperidin-4-yl)amino)-5-(trifluoromethyl)pyrimidin-4-yl)-2-(2-hydroxy-2-methylpropyl)thiophene-3-carboxamide], for which the IC50 on CDK4/Cyclin D1, at CDK2/Cyclin E2 and with OVCAR3 p-RB was no more than 100 nM throughout.
`CC(O)c1cnc(-c2nc(NC3CCN(S(=O)(=O)c4cn[nH]c4)CC3)ncc2C(F)(F)F)s1` (stereo not drawn) [Example 56, 1-(2-(2-((1-((1H-pyrazol-4-yl)sulfonyl)piperidin-4-yl)amino)-5-(trifluoromethyl)pyrimidin-4-yl)thiazol-5-yl)ethan-1-ol]: the IC50 at CDK4/Cyclin D1, at CDK2/Cyclin E2 and in the assay with OVCAR3 p-RB was no more than 100 nM each time.
Turning to `Cn1cnc(S(=O)(=O)N2CC[C@@H](Nc3ncc(C(F)(F)F)c(-c4cc(C(N)=O)cs4)n3)[C@H](F)C2)c1` [Example 14, 5-(2-(((3R,4R)-3-fluoro-1-((1-methyl-1H-imidazol-4-yl)sulfonyl)piperidin-4-yl)amino)-5-(trifluoromethyl)pyrimidin-4-yl)thiophene-3-carboxamide], the IC50 was no more than 100 nM at CDK4/Cyclin D1, no more than 100 nM on CDK2/Cyclin E2 and 100 to 500 nM with OVCAR3 p-RB.
With `Cn1cc(S(=O)(=O)N2CC[C@H](Nc3ncc(C(F)(F)F)c(-c4cc(C#N)c(CC(C)(C)O)s4)n3)[C@H](F)C2)cn1` [Example 41, 5-(2-(((3R,4S)-3-fluoro-1-((1-methyl-1H-pyrazol-4-yl)sulfonyl)piperidin-4-yl)amino)-5-(trifluoromethyl)pyrimidin-4-yl)-2-(2-hydroxy-2-methylpropyl)thiophene-3-carbonitrile], the IC50 on CDK4/Cyclin D1, on CDK2/Cyclin E2 and in the assay on OVCAR3 p-RB was no more than 100 nM in each case.
As to `CC(O)c1sc(-c2nc(NC3CCN(S(=O)(=O)c4cn(C)cn4)CC3)ncc2C(F)(F)F)cc1C#N` (stereo not drawn) [Example 33, 2-(1-hydroxyethyl)-5-(2-((1-((1-methyl-1H-imidazol-4-yl)sulfonyl)piperidin-4-yl)amino)-5-(trifluoromethyl)pyrimidin-4-yl)thiophene-3-carbonitrile], the IC50 at CDK4/Cyclin D1, on CDK2/Cyclin E2 and in the assay with OVCAR3 p-RB was no more than 100 nM throughout.
For the compound `CC(O)c1cnc(-c2nc(N[C@H]3CCN(S(=O)(=O)c4cnn(C)c4)C[C@H]3F)ncc2C(F)(F)F)s1` (stereo partly drawn) [Example 114, 1-(2-(2-(((3R,4S)-3-fluoro-1-((1-methyl-1H-pyrazol-4-yl)sulfonyl)piperidin-4-yl)amino)-5-(trifluoromethyl)pyrimidin-4-yl)thiazol-5-yl)ethan-1-ol], the IC50 is no more than 100 nM at CDK4/Cyclin D1, no more than 100 nM at CDK2/Cyclin E2 and 100 to 500 nM with OVCAR3 p-RB.
Regarding `CC(O)(c1cnc(-c2nc(NC3CCN(S(C)(=O)=O)CC3)ncc2C(F)(F)F)s1)C(F)(F)F` (stereo not drawn) [Example 103, 1,1,1-trifluoro-2-(2-(2-((1-(methylsulfonyl)piperidin-4-yl)amino)-5-(trifluoromethyl)pyrimidin-4-yl)thiazol-5-yl)propan-2-ol], the IC50 on CDK4/Cyclin D1, on CDK2/Cyclin E2 and with OVCAR3 p-RB was no more than 100 nM each time.
